Test results: patent US8791102B2, “Acetanilide sphingosine-1-phosphate receptor antagonists” (Exelixis, Inc., priority 2008, dated 2014)

Molecular target: T1, human S1P1 receptors (Homo sapiens, UniProt P21453)
T1 construct: host or cells: HEK293
Assay: S1P1R antagonist assay (fluorescent membrane potential dye, cAMP readout)
Type: cell-based
Settings: HEK293 cells expressing human S1P1 receptors and CNG channel; 500 nM NECA; S1P1R agonist 10 nM; 90 minutes; read-out: EC50 or IC50 value

T1 sequence (P21453 whole entry): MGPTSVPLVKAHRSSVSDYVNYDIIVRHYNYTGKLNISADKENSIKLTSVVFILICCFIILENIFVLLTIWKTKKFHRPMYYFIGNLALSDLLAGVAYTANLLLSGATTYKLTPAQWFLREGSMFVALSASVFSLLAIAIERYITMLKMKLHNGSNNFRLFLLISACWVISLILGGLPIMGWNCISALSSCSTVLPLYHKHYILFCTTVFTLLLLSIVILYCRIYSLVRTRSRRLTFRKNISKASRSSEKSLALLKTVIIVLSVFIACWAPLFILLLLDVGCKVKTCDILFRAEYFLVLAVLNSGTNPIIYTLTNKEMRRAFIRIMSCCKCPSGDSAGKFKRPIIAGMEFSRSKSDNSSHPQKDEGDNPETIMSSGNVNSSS

| SMILES | IC50 |
| --- | --- |
| Cc1noc(C)c1NC(=O)N[C@@H](COCc1ccccc1)C(=O)Nc1ccc(Oc2ccc(F)cc2)cc1 [Compound 172, (S)-2-(3-(3,5-dimethylisoxazol-4-yl)ureido)-3-benzyloxy-N-(4-(4-fluorophenoxy)phenyl)propanamide] | ≤ 300 nM |
| O=C(Nc1ccc(Oc2ccc(F)cc2)cc1)[C@@H]1C[C@@H](NCc2ccccc2)CN1C(=O)Cc1cnc[nH]1 [Compound 173, (2S,4R)-1-(2-(1H-imidazol-5-yl)acetyl)-4-(benzylamino)-N-(4-(4-fluorophenoxy)phenyl)pyrrolidine-2-carboxamide] | ≤ 300 nM |
| O=C(Nc1ccc(Oc2ccc(F)cc2)cc1)[C@@H]1CN(Cc2ccccc2)CCN1C(=O)Cc1cnc[nH]1 [Compound 175, (S)-1-(2-(1H-imidazol-4-yl)acetyl)-4-benzyl-N-(4-(4-fluorophenoxy)phenyl)piperazine-2-carboxamide] | ≤ 300 nM |
| Cc1cc(CC(=O)N2C[C@H](Cc3ccccc3)C[C@H]2C(=O)Nc2ccc(Oc3ccc(F)cc3)cc2)n[nH]1 [Compound 177, (2S,4R)-4-benzyl-N-(4-(4-fluorophenoxy)phenyl)-1-(2-(5-methyl-1H-pyrazol-3-yl)acetyl)pyrrolidine-2-carboxamide] | ≤ 300 nM |
| O=C(Nc1ccc(Oc2ccc(F)cc2)cc1)[C@@H]1C[C@@H](Cc2ccc(Cl)cc2Cl)CN1C(=O)Cn1cncn1 [Compound 180, (2S,4R)-1-(2-(1H-1,2,4-triazol-1-yl)acetyl)-4-(2,4-dichlorobenzyl)-N-(4-(4-fluorophenoxy)phenyl)pyrrolidine-2-carboxamide] | ≤ 300 nM |
| O=C(Cc1ccccc1F)NC(COCc1ccccc1)C(=O)Nc1ccc(Oc2ccccc2)cc1 (centres unmarked) [Compound 183, 3-(benzyloxy)-2-(2-(2-fluorophenyl)acetamido)-N-(4-phenoxyphenyl)propanamide] | 300 to 1000 nM |
| O=C(NC(COCc1ccccc1)C(=O)Nc1ccc(Oc2ccccc2)cc1)c1ccc2cc[nH]c2c1 (centres unmarked) [Compound 187, N-(3-(benzyloxy)-1-oxo-1-(4-phenoxyphenylamino)propan-2-yl)-1H-indole-6-carboxamide] | 300 to 1000 nM |
| O=C(NC(COCc1ccccc1)C(=O)Nc1ccc(Oc2ccccc2)cc1)C1Cc2ccccc2C1 (centres unmarked) [Compound 188, N-(3-(benzyloxy)-1-oxo-1-(4-phenoxyphenylamino)propan-2-yl)-2,3-dihydro-1H-indene-2-carboxamide] | 300 to 1000 nM |
| Cc1cccc(C(=O)NC(COCc2ccccc2)C(=O)Nc2ccc(Oc3ccccc3)cc2)c1[N+](=O)[O-] (centres unmarked) [Compound 189, N-(3-(benzyloxy)-1-oxo-1-(4-phenoxyphenylamino)propan-2-yl)-3-methyl-2-nitrobenzamide] | 300 to 1000 nM |
| O=C(Cc1cc(Cl)ccc1Cl)NC(COCc1ccccc1)C(=O)Nc1ccc(Oc2ccccc2)cc1 (centres unmarked) [Compound 190, 3-(benzyloxy)-2-(2-(2,5-dichlorophenyl)acetamido)-N-(4-phenoxyphenyl)propanamide] | 300 to 1000 nM |
| O=C(Cc1cc(Cl)ccc1F)NC(COCc1ccccc1)C(=O)Nc1ccc(Oc2ccccc2)cc1 (centres unmarked) [Compound 192, 3-(benzyloxy)-2-(2-(5-chloro-2-fluorophenyl)acetamido)-N-(4-phenoxyphenyl)propanamide] | 300 to 1000 nM |
| O=C(Cc1ccccc1F)N[C@@H](COCc1ccccc1)C(=O)Nc1ccc(Oc2ccccc2)cc1 [Compound 196, (S)-2-(2-(2-fluorophenyl)acetamido)-3-benzyloxy-N-(4-phenoxyphenyl)propanamide] | 300 to 1000 nM |
| O=C(Cc1cc(Cl)ccc1Cl)N[C@@H](COCc1ccccc1)C(=O)Nc1ccc(Oc2ccccc2)cc1 [Compound 199, (S)-2-(2-(2,5-dichlorophenyl)acetamido)-3-benzyloxy-N-(4-phenoxyphenyl)propanamide] | 300 to 1000 nM |
| O=C(Cc1cnc[nH]1)N[C@@H](COCc1ccccc1)C(=O)Nc1ccc(Cc2ccccc2)cc1 [Compound 200, (S)-2-(2-(1H-imidazol-4-yl)acetamido)-3-(benzyloxy)-N-(4-benzylphenyl)propanamide] | ≤ 300 nM |
| O=C(Cc1cnc[nH]1)N[C@@H](Cc1ccccc1)C(=O)Nc1ccc(Oc2ccc(Cl)cc2)cc1 [Compound 204, (S)-2-(2-(1H-imidazol-5-yl)acetamido)-N-(4-(4-chlorophenoxy)phenyl)-3-phenylpropanamide] | 300 to 1000 nM |
| O=C(Cc1c[nH]cn1)N[C@@H](COCc1ccccc1)C(=O)Nc1ccc(Oc2nccs2)cc1 [Compound 206, (S)-2-(2-(1H-imidazol-4-yl)acetamido)-3-(benzyloxy)-N-(4-(thiazol-2-yloxy)phenyl)propanamide] | 300 to 1000 nM |
| O=C(Cc1cnc[nH]1)N[C@@H](COCc1ccccc1)C(=O)Nc1ccc(OC2CCCCC2)cc1 [Compound 208, (S)-2-(2-(1H-imidazol-5-yl)acetamido)-3-(benzyloxy)-N-(4-(cyclohexyloxy)phenyl)propanamide] | 300 to 1000 nM |
| CN(C)CCC(=O)N[C@@H](COCc1ccccc1)C(=O)Nc1ccc(Oc2ccc(Cl)cc2)cc1 [Compound 209, (S)-3-(benzyloxy)-N-(4-(4-chlorophenoxy)phenyl)-2-(3-(dimethylamino)propanamido)propanamide] | 300 to 1000 nM |

Now from value to molecule:

| IC50 | SMILES |
| --- | --- |
| ≤ 300 nM | O=C(Cn1ccnn1)N[C@@H](COCc1ccccc1)C(=O)Nc1ccc(Oc2ccc(F)cc2)cc1 [Compound 174, (S)-2-(2-(1H-1,2,3-triazol-1-yl)acetamido)-3-(benzyloxy)-N-(4-(4-fluorophenoxy)phenyl)propanamide] |
| ≤ 300 nM | O=C(Nc1ccc(Oc2ccc(F)cc2)cc1)[C@@H]1C[C@@H](Cc2ccccc2)CN1C(=O)Cn1nnc2ccccc21 [Compound 176, (2S,4R)-1-(2-(1H-benzo[d][1,2,3]triazol-1-yl)acetyl)-4-benzyl-N-(4-(4-fluorophenoxy)phenyl)pyrrolidine-2-carboxamide] |
| ≤ 300 nM | O=C(Cn1cncn1)N[C@@H](COCc1ccccc1)C(=O)Nc1ccc(Sc2ccc(F)cc2)cc1 [Compound 178, (S)-2-(2-(1H-1,2,4-triazol-1-yl)acetamido)-3-(benzyloxy)-N-(4-(4-fluorophenylthio)phenyl)propanamide] |
| ≤ 300 nM | O=C(Nc1ccc(Oc2ccc(F)cc2)cc1)[C@@H]1C[C@@H](NCc2ccccc2)CN1C(=O)Cn1cncn1 [Compound 179, (2S,4R)-1-(2-(1H-1,2,4-triazol-1-yl)acetyl)-4-(benzylamino)-N-(4-(4-fluorophenoxy)phenyl)pyrrolidine-2-carboxamide] |
| ≤ 300 nM | O=C(Cn1cncn1)N[C@@H](COCc1ccccc1Cl)C(=O)Nc1ccc(Oc2ccc(F)cc2)cc1 [Compound 181, (S)-2-(2-(1H-1,2,4-triazol-1-yl)acetamido)-3-(2-chlorobenzyloxy)-N-(4-(4-fluorophenoxy)phenyl)propanamide] |
| ≤ 300 nM | O=C(Nc1ccc(Oc2ccc(F)cc2)cc1)[C@@H]1C[C@@H](NCc2ccsc2)CN1C(=O)Cn1cncn1 [Compound 182, (2S,4R)-1-(2-(1H-1,2,4-triazol-1-yl)acetyl)-N-(4-(4-fluorophenoxy)phenyl)-4-(thien-3-ylmethylamino)pyrrolidine-2-carboxamide] |
| 300 to 1000 nM | O=C(NC(COCc1ccccc1)C(=O)Nc1ccc(Oc2ccccc2)cc1)c1cccc2[nH]ccc12 (centres unmarked) [Compound 184, N-(3-(benzyloxy)-1-oxo-1-(4-phenoxyphenylamino)propan-2-yl)-1H-indole-4-carboxamide] |
| ≤ 300 nM | Cc1cc(CC(=O)NC(COCc2ccccc2)C(=O)Nc2ccc(Oc3ccccc3)cc2)on1 (centres unmarked) [Compound 185, 2-(2-(3-methylisoxazol-5-yl)acetamido)-3-benzyloxy-N-(4-phenoxyphenyl)propanamide] |
| 300 to 1000 nM | O=C(CCC(=O)C1CC1)NC(COCc1ccccc1)C(=O)Nc1ccc(Oc2ccccc2)cc1 (centres unmarked) [Compound 186, N-(3-(benzyloxy)-1-oxo-1-(4-phenoxyphenylamino)propan-2-yl)-4-cyclopropyl-4-oxobutanamide] |
| 300 to 1000 nM | O=C(Cc1cccc(Cl)c1F)NC(COCc1ccccc1)C(=O)Nc1ccc(Oc2ccccc2)cc1 (centres unmarked) [Compound 191, 3-(benzyloxy)-2-(2-(3-chloro-2-fluorophenyl)acetamido)-N-(4-phenoxyphenyl)propanamide] |
| 300 to 1000 nM | CN(CC(=O)N[C@@H](COCc1ccccc1)C(=O)Nc1ccc(Oc2ccccc2)cc1)C(=O)c1ccccc1 [Compound 194, (S)-2-{2-((benzoyl)(methyl)amino)acetamido}-3-benzyloxy-N-(4-phenoxyphenyl)propanamide] |
| ≤ 300 nM | Cn1cnc(CC(=O)N[C@@H](COCc2ccccc2)C(=O)Nc2ccc(Oc3ccccc3)cc2)c1 [Compound 195, (S)-2-(2-(1-methyl-1H-imidazol-4-yl)acetamido)-3-benzyloxy-N-(4-phenoxyphenyl)propanamide] |
| 300 to 1000 nM | O=C(Cc1cccs1)N[C@@H](COCc1ccccc1)C(=O)Nc1ccc(Oc2ccccc2)cc1 [Compound 198, (S)-2-(2-(thien-2-yl)acetamido)-3-benzyloxy-N-(4-phenoxyphenyl)propanamide] |
| ≤ 300 nM | COc1ccc(Oc2ccc(NC(=O)[C@H](COCc3ccccc3)NC(=O)Cc3c[nH]cn3)cc2)cc1 [Compound 202, (S)-2-(2-(1H-imidazol-4-yl)acetamido)-3-(benzyloxy)-N-(4-(4-methoxyphenoxy)phenyl)propanamide] |
| ≤ 300 nM | CN(C(=O)Cc1c[nH]cn1)[C@@H](COCc1ccccc1)C(=O)Nc1ccc(Oc2ccccc2)cc1 [Compound 203, (S)-2-(2-(1H-imidazol-4-yl)-N-methylacetamido)-3-(benzyloxy)-N-(4-phenoxyphenyl)propanamide] |
| ≤ 300 nM | O=C(CN1CCNCC1)N[C@@H](COCc1ccccc1)C(=O)Nc1ccc(Oc2ccc(F)cc2)cc1 [Compound 205, (S)-3-(benzyloxy)-N-(4-(4-fluorophenoxy)phenyl)-2-(2-(piperazin-1-yl)acetamido)propanamide] |
| ≤ 300 nM | O=C(CCc1cnc[nH]1)N[C@@H](COCc1ccccc1)C(=O)Nc1ccc(Oc2ccc(F)cc2)cc1 [Compound 207, (S)-2-(3-(1H-imidazol-5-yl)propanamido)-3-(benzyloxy)-N-(4-(4-fluorophenoxy)phenyl)propanamide] |
